Key:
Type in all cases: cell-based
Klebsiella oxytoca [1] = test: Bactericidal effect in 27% sodium lauryl ether sulphate (challenge test)
Method: (§1) Sodium lauryl ether sulphate (SLES) is a commonly used anionic detergent, a major active component of shampoos, foam baths and general purpose cleaners. The bactericidal activity of some compounds covered by the general formula given above was evaluated at final levels of 0.10% (w/w) and 0. 15% (w/w) in a 27% active solution of SLES (confirmed as containing no other preservatives). The activity of these compounds was evaluated in comparison with 0.30% methyl-4-hydroxybenzoate and an unpreserved control sample.
(§2) The test organisms were three species of resistant Gram negative bacteria which had previously been isolated from contaminated detergent products. 20g portions of test solutions were inoculated with 0.1 ml pure culture of the test bacteria and the time taken to achieve a total lethal effect against each species was determined by sub-culture at regular intervals into sterile dilution media (containing preservative inact ivators) and then into sterile Nutrient Broth, which was incubated for 4 days at 32°C to determine the presence or absence of surviving bacteria.

Pseudomonas aeruginosa [2] = test: as above
Method: as §1, §2

Serratia marcescens [3] = test: as above
Method: as §1, §2

[4] = system: mixed culture of 7 strains of Gram negative bacteria; test: Survivor plate count in shampoo formulation after challenge; settings: shampoo with 0.05% citric acid alone (Control 1)
Method: A shampoo formulation was prepared to the following formula: […]
Various additions were made to portions of this shampoo in sterile bottles under aseptic conditions, as follows: • 1. 0.20% of 30% DCHB in propylene glycol (0.06% active DCHB) • 2. 0.20% of 30% DCHB in propylene glycol + 0.05% citric acid • 3. 0.05% citric acid (control 1) • 4. No addition (control 2)
Each of these systems was inoculated with a mixed culture of 7 strains of Gram negative bacteria, at an initial inocullum level of 9.0x10^7 colony forming units per g. At 30 mins, 1 hour, 2 hours, 6 hours, 24 hours and 7 days after inoculation the total number of survivors in each sample portion were determined by serial dilution and plate counting; with the following results: […]

Klebsiella oxytoca [5] = test: Challenge test in Polysorbate 80 solutions
Method: (§3) Many antimicrobial preservatives are inactivated by polyalkoxylated nonionic emulsifiers which are widely used in emulsification of cosmetic, pharmaceutical and industrial emulsions. […] Normal use levels of Polysorbate 80 are 1-5%.
(§4) 3,5-Dibromo-4-hydroxybenzaldehyde was evaluated at 0.05%, 0.10% and 0.15% in 5% and 10% Polysorbate 80 solutions by a challenge test of the type described in Example 2.

Pseudomonas aeruginosa [6] = test: Challenge test in Polysorbate 80 solutions
Method: as §3, §4

Pseudomonas putida [7] = test: Challenge test in Polysorbate 80 solutions
Method: as §3, §4

Escherichia coli [8] = test: Challenge test in Polysorbate 80 solutions
Method: as §3, §4

Serratia marcescens [9] = test: Challenge test in Polysorbate 80 solutions
Method: as §3, §4

Pencicillium expansum = test: Microbial challenge test in cosmetic cream
Method: (§5) Emulsions are susceptible to contamination and spoilage by-a wide range of micro-organisms. 3.5-Dibromo-4-hydroxybenzaldehyde (DBHB), as a non-limiting illustration of the invention, was evaluated in a typical cosmetic cream for microbiocidal efficacy. The cosmetic cream had the following formulation: […]
(§6) This cream was prepared by heating the oil and water phases to 70°C, mixing and stirring until cool. The DBHB was incorporated into the cream at final levels of 0.05%, 0.10% and 0.15% by dissolving into the emulsion components at the heating stage. A microbial challenge test was performed to determine the micro-biocidal activity of the test product. The following test organisms were inoculated in pure culture into portions of sterile cream samples and the time taken to achieve a total lethal effect was determined by regular sub-culture into recovery media (with preservative inactivators) which were incubated and observed for growth of survivors.

Pseudomonas aeruginosa [10] = test: Microbial challenge test in cosmetic cream
Method: as §5, §6

Pseudomonas putida [11] = test: Microbial challenge test in cosmetic cream
Method: as §5, §6

Candida albicans = test: Microbial challenge test in cosmetic cream
Method: as §5, §6

Staphylococcus aureus = test: Microbial challenge test in cosmetic cream
Method: as §5, §6

Escherichia coli [12] = test: Microbial challenge test in cosmetic cream
Method: as §5, §6

Serratia marcescens [13] = test: Microbial challenge test in cosmetic cream
Method: as §5, §6

[14] = 0.05%, Polysorbate 80 level 10%
[15] = 0.10%, Polysorbate 80 level 10%
[16] = 0.15%, Polysorbate 80 level 10%

## COC(=O)c1ccc(O)cc1 [Methyl-4-hydroxybenzoate, reference compound]
Klebsiella oxytoca [1]; 0.3% in 27% SLES
  Time to achieve total lethal effect against: K oxytoca: 504 h
Pseudomonas aeruginosa [2]; 0.3% in 27% SLES
  Time to achieve total lethal effect against: P aeruginosa: 336 h
Serratia marcescens [3]; 0.3% in 27% SLES
  Time to achieve total lethal effect against: S marcescens: >28 days

## O=C(O)CC(O)(CC(=O)O)C(=O)O [citric acid, reference compound]
[4]
  Mixed culture - colony forming units/g after: 30 mins: 9.0x10^7 colony forming units/g
  Mixed culture - colony forming units/g after: 1 hour: 3.5x10^7 colony forming units/g
  Mixed culture - colony forming units/g after: 2 hours: 6.5x10^7 colony forming units/g
  Mixed culture - colony forming units/g after: 6 hours: >1x10^8 colony forming units/g
  Mixed culture - colony forming units/g after: 24 hours: >1x10^8 colony forming units/g
  Mixed culture - colony forming units/g after: 7 days: >1x10^8 colony forming units/g

## O=Cc1ccc(O)c(Cl)c1 [3-Chloro-4-hydroxybenzaldehyde]
Klebsiella oxytoca [1]; 0.10% in 27% SLES
  Time to achieve total lethal effect against: K oxytoca: 6 h
Klebsiella oxytoca [1]; 0.15% in 27% SLES
  Time to achieve total lethal effect against: K oxytoca: 1 h
Pseudomonas aeruginosa [2]; 0.10% in 27% SLES
  Time to achieve total lethal effect against: P aeruginosa: 3 h
Pseudomonas aeruginosa [2]; 0.15% in 27% SLES
  Time to achieve total lethal effect against: P aeruginosa: 1 h
Serratia marcescens [3]; 0.10% in 27% SLES
  Time to achieve total lethal effect against: S marcescens: 1 days
Serratia marcescens [3]; 0.15% in 27% SLES
  Time to achieve total lethal effect against: S marcescens: 0.25 days

## Cc1cc(C=O)cc(C)c1O [3,5-Dimethyl-4-hydroxybenzaldehyde, 3,5,-Dimethyl-4-hydroxybenzaldehyde]
Klebsiella oxytoca [1]; 0.10% in 27% SLES
  Time to achieve total lethal effect against: K oxytoca: 3 h
Klebsiella oxytoca [1]; 0.15% in 27% SLES
  Time to achieve total lethal effect against: K oxytoca: <1 h
Pseudomonas aeruginosa [2]; 0.10% in 27% SLES
  Time to achieve total lethal effect against: P aeruginosa: 1 hour hours
Pseudomonas aeruginosa [2]; 0.15% in 27% SLES
  Time to achieve total lethal effect against: P aeruginosa: <1 h
Serratia marcescens [3]; 0.10% in 27% SLES
  Time to achieve total lethal effect against: S marcescens: 1 days
Serratia marcescens [3]; 0.15% in 27% SLES
  Time to achieve total lethal effect against: S marcescens: 0.12 days

## O=Cc1cc(Br)c(O)c(Br)c1 [DBHB, 3,5-Dibromo-4-hydroxybenzaldehyde]
Klebsiella oxytoca [5]; 0.05%, Polysorbate 80 level 5%
  Time taken to achieve total lethal effect against: K oxytoca: 6 h
Klebsiella oxytoca [5]; [14]
  Time taken to achieve total lethal effect against: K oxytoca: 3 h
Klebsiella oxytoca [5]; 0.10%, Polysorbate 80 level 5%
  Time taken to achieve total lethal effect against: K oxytoca: 1 h
Klebsiella oxytoca [5]; [15]
  Time taken to achieve total lethal effect against: K oxytoca: 1 h
Klebsiella oxytoca [5]; 0.15%, Polysorbate 80 level 5%
  Time taken to achieve total lethal effect against: K oxytoca: <1 h
Klebsiella oxytoca [5]; [16]
  Time taken to achieve total lethal effect against: K oxytoca: <1 h
Pseudomonas aeruginosa [6]; 0.05%, Polysorbate 80 level 5%
  Time taken to achieve total lethal effect against: P aeruginosa: 3 h
Pseudomonas aeruginosa [6]; [14]
  Time taken to achieve total lethal effect against: P aeruginosa: 24 h
Pseudomonas aeruginosa [6]; 0.10%, Polysorbate 80 level 5%
  Time taken to achieve total lethal effect against: P aeruginosa: <1 h
Pseudomonas aeruginosa [6]; [15]
  Time taken to achieve total lethal effect against: P aeruginosa: 3 h
Pseudomonas aeruginosa [6]; 0.15%, Polysorbate 80 level 5%
  Time taken to achieve total lethal effect against: P aeruginosa: <1 h
Pseudomonas aeruginosa [6]; [16]
  Time taken to achieve total lethal effect against: P aeruginosa: <1 h
Pseudomonas putida [7]; 0.05%, Polysorbate 80 level 5%
  Time taken to achieve total lethal effect against: P putida: 3 h
Pseudomonas putida [7]; [14]
  Time taken to achieve total lethal effect against: P putida: 1 h
Pseudomonas putida [7]; 0.10%, Polysorbate 80 level 5%
  Time taken to achieve total lethal effect against: P putida: <1 h
Pseudomonas putida [7]; [15]
  Time taken to achieve total lethal effect against: P putida: 1 h
Pseudomonas putida [7]; 0.15%, Polysorbate 80 level 5%
  Time taken to achieve total lethal effect against: P putida: <1 h
Pseudomonas putida [7]; [16]
  Time taken to achieve total lethal effect against: P putida: <1 h
Escherichia coli [8]; 0.05%, Polysorbate 80 level 5%
  Time taken to achieve total lethal effect against: E coli: 6 h
Escherichia coli [8]; [14]
  Time taken to achieve total lethal effect against: E coli: 3 h
Escherichia coli [8]; 0.10%, Polysorbate 80 level 5%
  Time taken to achieve total lethal effect against: E coli: <1 h
Escherichia coli [8]; [15]
  Time taken to achieve total lethal effect against: E coli: 1 h
Escherichia coli [8]; 0.15%, Polysorbate 80 level 5%
  Time taken to achieve total lethal effect against: E coli: <1 h
Escherichia coli [8]; [16]
  Time taken to achieve total lethal effect against: E coli: <1 h
Serratia marcescens [9]; 0.05%, Polysorbate 80 level 5%
  Time taken to achieve total lethal effect against: S marcescens: 24 h
Serratia marcescens [9]; [14]
  Time taken to achieve total lethal effect against: S marcescens: 24 h
Serratia marcescens [9]; 0.10%, Polysorbate 80 level 5%
  Time taken to achieve total lethal effect against: S marcescens: 1 h
Serratia marcescens [9]; [15]
  Time taken to achieve total lethal effect against: S marcescens: 3 h
Serratia marcescens [9]; 0.15%, Polysorbate 80 level 5%
  Time taken to achieve total lethal effect against: S marcescens: 1 h
Serratia marcescens [9]; [16]
  Time taken to achieve total lethal effect against: S marcescens: 1 h
Klebsiella oxytoca [1]; 0.10% in 27% SLES
  Time to achieve total lethal effect against: K oxytoca: 3 h
Klebsiella oxytoca [1]; 0.15% in 27% SLES
  Time to achieve total lethal effect against: K oxytoca: <1 h
Pseudomonas aeruginosa [2]; 0.10% in 27% SLES
  Time to achieve total lethal effect against: P aeruginosa: 1 hour hours
Pseudomonas aeruginosa [2]; 0.15% in 27% SLES
  Time to achieve total lethal effect against: P aeruginosa: <1 h
Serratia marcescens [3]; 0.10% in 27% SLES
  Time to achieve total lethal effect against: S marcescens: 0.12 days
Serratia marcescens [3]; 0.15% in 27% SLES
  Time to achieve total lethal effect against: S marcescens: <1 hour hours
Pencicillium expansum; 0.05% in cosmetic cream
  Time taken to achieve total lethal effect against: Pen expansum: 4 days
Pencicillium expansum; 0.10% in cosmetic cream
  Time taken to achieve total lethal effect against: Pen expansum: 2 days
Pencicillium expansum; 0.15% in cosmetic cream
  Time taken to achieve total lethal effect against: Pen expansum: 1 days
Pseudomonas aeruginosa [10]; 0.05% in cosmetic cream
  Time taken to achieve total lethal effect against: P aeruginosa: 3 h
Pseudomonas aeruginosa [10]; 0.10% in cosmetic cream
  Time taken to achieve total lethal effect against: P aeruginosa: 3 h
Pseudomonas aeruginosa [10]; 0.15% in cosmetic cream
  Time taken to achieve total lethal effect against: P aeruginosa: <1 h
Pseudomonas putida [11]; 0.05% in cosmetic cream
  Time taken to achieve total lethal effect against: P putida: 3 h
Pseudomonas putida [11]; 0.10% in cosmetic cream
  Time taken to achieve total lethal effect against: P putida: <1 h
Pseudomonas putida [11]; 0.15% in cosmetic cream
  Time taken to achieve total lethal effect against: P putida: <1 h
Candida albicans; 0.05% in cosmetic cream
  Time taken to achieve total lethal effect against: C albicans: 3 h
Candida albicans; 0.10% in cosmetic cream
  Time taken to achieve total lethal effect against: C albicans: <1 h
Candida albicans; 0.15% in cosmetic cream
  Time taken to achieve total lethal effect against: C albicans: <1 h
Staphylococcus aureus; 0.05% in cosmetic cream
  Time taken to achieve total lethal effect against: S aureus: 1 h
Staphylococcus aureus; 0.10% in cosmetic cream
  Time taken to achieve total lethal effect against: S aureus: <1 h
Staphylococcus aureus; 0.15% in cosmetic cream
  Time taken to achieve total lethal effect against: S aureus: <1 h
Escherichia coli [12]; 0.05% in cosmetic cream
  Time taken to achieve total lethal effect against: E coli: 3 h
Escherichia coli [12]; 0.10% in cosmetic cream
  Time taken to achieve total lethal effect against: E coli: 3 h
Escherichia coli [12]; 0.15% in cosmetic cream
  Time taken to achieve total lethal effect against: E coli: <1 h
Serratia marcescens [13]; 0.05% in cosmetic cream
  Time taken to achieve total lethal effect against: S marcescens: 3 h
Serratia marcescens [13]; 0.10% in cosmetic cream
  Time taken to achieve total lethal effect against: S marcescens: 3 h
Serratia marcescens [13]; 0.15% in cosmetic cream
  Time taken to achieve total lethal effect against: S marcescens: 1 h

From patent EP0193257A1, “Control of micro-organisms in water-containing compositions” (NIPA LABORATORIES, LTD., priority 1985, dated 1986)
